According to article PMC12074421, “Development and Characterization of pFluor50, a Fluorogenic-Based Kinetic Assay System for High-Throughput Inhibition Screening and Characterization of Time-Dependent Inhibition and Inhibition Type for Six Human CYPs” (Molecules, 2025):
Where “and” joins values, the source holds several entries; their conditions need not be identical. Equal values may be shown once.

Columns and labels:
[1] = target: T1, CYP2C19 (Homo sapiens, UniProt P33261); experiment: pFluor50 Michaelis–Menten kinetics, CYP2C19 with 3OMF; type: in vitro ADME
T1 construct: purchased Sigma Aldrich (CYPexpress, Oxford Biomedical Research, Inc.) MTOXCE2C19
Experimental: (§1) In general, the protocol for determination of the Michaelis–Menten kinetic parameters (KM and Vmax) involved addition of the appropriate master mix to phosphate buffer followed by addition of the appropriate amount of enzyme to the mix. The master mix was determined for each specific CPY450 based on empirical methods involving each reagent to obtain a linear range of enzyme activity. A total of 30 µL of this enzyme mix was then added to each well of the 384-well plate. Next, initial background readings were taken for 5 min, after which the appropriate amount of substrate was dispensed into each well using the onboard reagent dispenser of the plate reader. All plates contained one blank well without enzyme (only master mix) for each substrate concentration. […] Table 1 provides the formulation of the master mix for each CYP, the kinetic read time with substrate, the read time interval, the concentration range of the substrate used for the Michaelis–Menten kinetics, the Ex and Em wavelengths, and the concentration of substrate for inhibition/activation screening. Table S1 details the specific parameters used for the plate reader for each CYP–substrate pair.
(§2) For determining the Michaelis–Menten kinetic parameters (KM and Vmax) for each CYP–substrate pair, kinetic studies were performed in which a range of different concentrations of the substrate were used. Table 1 details the formulations for the master mix, CYPexpress^TM concentrations, and concentration ranges of each specific substrate. For each CYP–substrate pair, plate reader parameters were set up as described in Table S1. […] Briefly, the working solution was prepared for each substrate and then primed into one of the dispensers on the plate reader. […] The amount of CYPexpress reagent in units/(mg/mL) was determined for each enzyme as new lots may have slightly different activities, and the activity of the reagent may change over time. The appropriate mass of each CYPexpress^TM reagent needed to obtain the required units was measured using an analytical balance and was transferred to the master mix solution. […]

[2] = target: CYP2C9 (Homo sapiens, UniProt P11712); experiment: pFluor50 Michaelis–Menten kinetics, CYP2C9 with Eres; type: in vitro ADME; set-up: purchased Sigma Aldrich (CYPexpress, Oxford Biomedical Research, Inc.) MTOXCE2C9
CYP2C9, sequence (P11712 whole entry): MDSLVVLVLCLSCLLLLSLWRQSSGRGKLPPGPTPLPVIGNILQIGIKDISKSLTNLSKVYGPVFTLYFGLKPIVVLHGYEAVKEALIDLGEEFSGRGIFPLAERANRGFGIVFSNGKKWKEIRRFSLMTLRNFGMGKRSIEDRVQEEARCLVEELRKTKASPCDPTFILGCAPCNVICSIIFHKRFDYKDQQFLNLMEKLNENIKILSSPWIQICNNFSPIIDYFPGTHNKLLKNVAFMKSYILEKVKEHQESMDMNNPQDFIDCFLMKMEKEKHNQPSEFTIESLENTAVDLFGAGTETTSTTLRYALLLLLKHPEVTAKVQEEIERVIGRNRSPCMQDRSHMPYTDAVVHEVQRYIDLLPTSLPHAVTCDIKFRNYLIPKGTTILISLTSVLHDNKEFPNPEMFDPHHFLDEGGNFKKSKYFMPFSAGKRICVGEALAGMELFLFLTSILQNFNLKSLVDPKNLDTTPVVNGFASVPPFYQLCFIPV
Experimental: as §1, §2

[3] = target: CYP2D6 (Homo sapiens, UniProt P10635); experiment: pFluor50 Michaelis–Menten kinetics, CYP2D6 with Eres; type: in vitro ADME; set-up: purchased Sigma Aldrich (CYPexpress, Oxford Biomedical Research, Inc.) MTOXCE2D6
CYP2D6, sequence (P10635 whole entry): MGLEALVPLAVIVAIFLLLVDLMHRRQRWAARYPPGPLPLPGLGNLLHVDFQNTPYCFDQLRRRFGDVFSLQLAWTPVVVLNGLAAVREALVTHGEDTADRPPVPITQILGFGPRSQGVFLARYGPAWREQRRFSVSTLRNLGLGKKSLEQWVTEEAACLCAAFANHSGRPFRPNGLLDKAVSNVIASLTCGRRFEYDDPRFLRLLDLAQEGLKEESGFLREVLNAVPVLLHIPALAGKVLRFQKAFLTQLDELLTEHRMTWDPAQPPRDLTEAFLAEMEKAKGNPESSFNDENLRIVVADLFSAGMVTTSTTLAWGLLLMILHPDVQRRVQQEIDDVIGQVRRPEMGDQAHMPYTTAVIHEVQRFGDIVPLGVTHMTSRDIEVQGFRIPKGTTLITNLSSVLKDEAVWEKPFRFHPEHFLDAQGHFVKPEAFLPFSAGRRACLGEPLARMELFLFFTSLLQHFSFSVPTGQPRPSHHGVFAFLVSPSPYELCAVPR
Experimental: as §1, with “reader.” for “reader. All plates contained one blank well without enzyme (only master mix) for each substrate concentration.”
For determining the Michaelis–Menten kinetic parameters (KM and Vmax) for each CYP–substrate pair, kinetic studies were performed in which a range of different concentrations of the substrate were used. […] For each CYP–substrate pair, plate reader parameters were set up as described in Table S1. […]

[4] = substrate: COc1ccc2c(-c3ccccc3C(=O)O)c3ccc(=O)cc-3oc2c1; experiment: pFluor50 Michaelis–Menten kinetics, CYP2C19 with 3OMF; type: in vitro ADME, human; settings: pH 7.4
Experimental: as §1
For determining the Michaelis–Menten kinetic parameters (KM and Vmax) for each CYP–substrate pair, kinetic studies were performed in which a range of different concentrations of the substrate were used. […] For each CYP–substrate pair, plate reader parameters were set up as described in Table S1. […] Briefly, the working solution was prepared for each substrate and then primed into one of the dispensers on the plate reader. […] The amount of CYPexpress reagent in units/(mg/mL) was determined for each enzyme as new lots may have slightly different activities, and the activity of the reagent may change over time. The appropriate mass of each CYPexpress^TM reagent needed to obtain the required units was measured using an analytical balance and was transferred to the master mix solution. […] The plate was then transferred to the plate reader and readings were taken at the time intervals, for the appropriate length of time, and at the appropriate wavelengths as specified in Table 1.
Calibration curves were constructed using the determined plate reader settings (Figure S3) and concentrations of the products formed to allow for the calculation of product formation rates based on the observed fluorescence. For these calculations, we presumed that the total increase in observed fluorescence over time was due only to product formation. Calibration curves were generated with 6 different concentrations of the products (fluorescein and resorufin), which spanned the relative fluorescence units (RFU) observed during the kinetic experiments. […]

[5] = other: CYP2C19 2 mg/mL, three biological replicates

COc1ccc2c(-c3ccccc3C(=O)O)c3ccc(=O)cc-3oc2c1 [3OMF, 2-(6-methoxy-3-oxo-3H-xanthen-9-yl)benzoic acid]
Vmax – repeat 1 ([1]; CYP2C19, biological repeat 1): 19.35 nmol/min
Vmax – repeat 2 ([1]; CYP2C19, biological repeat 2): 15.86 nmol/min
Vmax – repeat 3 ([1]; CYP2C19, biological repeat 3): 19.37 nmol/min

CCOc1ccc2nc3ccc(=O)cc-3oc2c1 [Eres, 7-ethoxy-3H-phenoxazin-3-one]
Vmax – repeat 1 ([2]; CYP2C9, biological repeat 1): 0.40 nmol/min
Vmax – repeat 2 ([2]; CYP2C9, biological repeat 2): 0.39 nmol/min
Vmax – repeat 3 ([2]; CYP2C9, biological repeat 3): 0.49 nmol/min
Vmax – repeat 1 ([3]; CYP2D6, biological repeat 1): 1.22 nmol/min
Vmax – repeat 2 ([3]; CYP2D6, biological repeat 2): 0.72 nmol/min

B1: CYP2C19 (Homo sapiens) (protein)
chain: MDPFVVLVLCLSCLLLLSIWRQSSGRGKLPPGPTPLPVIGNILQIDIKDVSKSLTNLSKIYGPVFTLYFGLERMVVLHGYEVVKEALIDLGEEFSGRGHFPLAERANRGFGIVFSNGKRWKEIRRFSLMTLRNFGMGKRSIEDRVQEEARCLVEELRKTKASPCDPTFILGCAPCNVICSIIFQKRFDYKDQQFLNLMEKLNENIRIVSTPWIQICNNFPTIIDYFPGTHNKLLKNLAFMESDILEKVKEHQESMDINNPRDFIDCFLIKMEKEKQNQQSEFTIENLVITAADLLGAGTETTSTTLRYALLLLLKHPEVTAKVQEEIERVIGRNRSPCMQDRGHMPYTDAVVHEVQRYIDLIPTSLPHAVTCDVKFRNYLIPKGTTILTSLTSVLHDNKEFPNPEMFDPRHFLDEGGNFKKSNYFMPFSAGKRICVGEGLARMELFLFLTFILQNFNLKSLIDPKDLDTTPVVNGFASVPPFYQLCFIPV
notes: purchased Sigma Aldrich (CYPexpress, Oxford Biomedical Research, Inc.) MTOXCE2C19
Km [4, 5]: 2.3 ± 0.8 µM and 2.31 ± 0.8 µM
Vmax [4, 5]: 0.0182 µmol/min
Km ([4]; other: CYP2C19, biological repeat 1): 3.19 µM
Km ([4]; other: CYP2C19, biological repeat 2): 1.42 µM
